What was measured:
SD rats = experiment: Bleeding time measurement in SD rats; format: in vivo, Rats (male); conditions: 10 mg/kg p.o. once, light, 2 hours after administration
Method: (§1) Animal tests supporting the effects of the present invention were carried out as described in Table 8 below.

[1] = system: ADP-induced platelet aggregation; experiment: Measurement of ADP-induced platelet aggregation in SD rats (PRP, aggregometer); format: in vivo, Rats (male); conditions: single drug 10 mg/kg, light
Method: as §1

Question: With `COC(=O)[C@H](c1ccccc1Cl)N1CCc2sccc2C1` [Clopidogrel, methyl (+)-(S)-α-(o-chlorophenyl)-6,7-dihydrothieno[3,2-c]pyridine-5(4H)-acetate] as the compound, how does the Bleeding time (SD rats) read?
Answer: 1177 ± 729 s

Question: What about the Platelet aggregation [1] of the same compound?
Answer: 77.1 ± 20.9%

Question: `CC(=O)Oc1ccccc1C(=O)O` [Aspirin, acetylsalicylic acid] was tested. Which Bleeding time (SD rats) did it give?
Answer: 930 ± 296 s

Question: And the Platelet aggregation [1]?
Answer: 83.5 ± 16.7%

Reference: patent US20110038931A1, “COMPOSITE PREPARATION” (HANALL BIOPHARMA CO., LTD., priority 2008, published 2011)
